Measurements taken from patent US12252524B2, “GIP/GLP1 co-agonist compounds” (Eli Lilly and Company, priority 2018, dated 2025).
Numbered stars: 1 amine (or outer) side, 2 acyl side, 3 side chain; on linkers, the order of the positions; unused ones are H or OH. Square brackets hold non-standard residues; d marks the D form. Side chains are listed from the residue outwards. Peptide text beside a SMILES is read from it. * marks the point of attachment. C18 diacid = O=C(O)CCCCCCCCCCCCCCCCC(=O)*; αMePhe(2-F) = C[C@](N)(Cc1ccccc1F)C(=O)O; γGlu = O=C(O)[C@H](CCC(=O)[*:2])N[*:1]; αMeF = C[C@](N)(Cc1ccccc1)C(=O)O; AEEA = NCCOCCOCC(=O)O; Aib = CC(C)(N)C(=O)O

Key:
[1] = target: human GLP-1 receptor (GLP-1R) (Homo sapiens, UniProt P43220); test: cAMP pharmacological functional assay in presence of casein, hGLP-1R; assay type: cell-based; details: HEK293 cells expressing hGLP-1R, 0.1% Casein, geometric mean; read-out: hGLP1R cAMP Rel EC50 nM (SEM, n)
[2] = target: T1, gastric inhibitory peptide receptor (GIPR) (Homo sapiens, UniProt P48546); test: cAMP pharmacological functional assay in presence of casein, hGIPR; assay type: cell-based; details: HEK293 cells expressing hGIPR, 0.1% Casein, geometric mean; read-out: hGIPR cAMP Rel EC50 nM (SEM, n)
T1 sequence (P48546 22-466): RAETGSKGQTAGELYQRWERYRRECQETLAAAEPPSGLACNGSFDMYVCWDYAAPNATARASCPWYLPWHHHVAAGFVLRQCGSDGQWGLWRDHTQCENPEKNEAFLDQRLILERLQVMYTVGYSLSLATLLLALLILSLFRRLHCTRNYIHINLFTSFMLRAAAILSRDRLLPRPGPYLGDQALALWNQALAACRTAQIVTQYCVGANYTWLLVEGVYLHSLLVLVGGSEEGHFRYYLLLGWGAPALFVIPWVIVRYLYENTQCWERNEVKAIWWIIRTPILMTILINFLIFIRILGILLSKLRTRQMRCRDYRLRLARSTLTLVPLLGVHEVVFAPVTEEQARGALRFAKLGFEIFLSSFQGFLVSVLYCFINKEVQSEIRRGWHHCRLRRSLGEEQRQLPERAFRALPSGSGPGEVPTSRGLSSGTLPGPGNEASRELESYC

human Gcg receptor = target: T2, human Gcg receptor (Homo sapiens, UniProt P47871); test: [125I]-Glucagon binding (SPA), human Gcg receptor; details: read-out: hGLcgR Ki, nM (SEM, n)
T2 construct: expressed in transfected cells; crude membranes
In short: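 Cell pellets were lysed in hypotonic Tris buffer, pH 7.5, homogenized, and spun at low then high speed to give crude membranes. Ki was derived from the fitted IC50.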

human GLP-1R = human GLP-1R (Homo sapiens, UniProt P43220); test: [125I]-GLP-1 binding (SPA), human GLP-1 receptor; design: expressed in transfected cells; crude membranes; details: read-out: hGLP1R Ki, (nM) (SEM, n)
In short: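 Ki values are geometric means with SEM over independent replicates on different days, derived from IC50s fitted by four-parameter nonlinear regression. The assay used crude cell membranes in HEPES buffer, pH 7.4, containing CaCl2, MgCl2, bacitracin and TWEEN-20.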

human GIP receptor = target: T3, human GIP receptor (Homo sapiens, UniProt P48546); test: [125I]-GIP binding (SPA), human GIP receptor; details: read-out: hGIPR Ki, nM (SEM, n)
T3 construct: expressed in transfected cells; crude membranes
T3 sequence (P48546 22-466): T1 sequence (P48546 22-466)

T2 sequence (P47871 26-477): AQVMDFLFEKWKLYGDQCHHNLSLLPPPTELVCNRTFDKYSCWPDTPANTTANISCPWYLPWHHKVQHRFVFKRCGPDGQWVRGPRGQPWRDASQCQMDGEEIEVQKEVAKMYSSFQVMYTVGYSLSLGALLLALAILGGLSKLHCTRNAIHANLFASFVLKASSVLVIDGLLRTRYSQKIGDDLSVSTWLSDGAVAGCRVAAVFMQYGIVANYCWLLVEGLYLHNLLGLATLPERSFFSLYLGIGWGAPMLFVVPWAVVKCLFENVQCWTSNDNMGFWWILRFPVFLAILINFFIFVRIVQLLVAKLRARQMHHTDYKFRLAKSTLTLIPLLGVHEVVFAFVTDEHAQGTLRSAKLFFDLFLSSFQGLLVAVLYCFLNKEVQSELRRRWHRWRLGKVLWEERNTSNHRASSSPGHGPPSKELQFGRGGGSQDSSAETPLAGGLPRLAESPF
human GLP-1R, sequence (P43220 24-463): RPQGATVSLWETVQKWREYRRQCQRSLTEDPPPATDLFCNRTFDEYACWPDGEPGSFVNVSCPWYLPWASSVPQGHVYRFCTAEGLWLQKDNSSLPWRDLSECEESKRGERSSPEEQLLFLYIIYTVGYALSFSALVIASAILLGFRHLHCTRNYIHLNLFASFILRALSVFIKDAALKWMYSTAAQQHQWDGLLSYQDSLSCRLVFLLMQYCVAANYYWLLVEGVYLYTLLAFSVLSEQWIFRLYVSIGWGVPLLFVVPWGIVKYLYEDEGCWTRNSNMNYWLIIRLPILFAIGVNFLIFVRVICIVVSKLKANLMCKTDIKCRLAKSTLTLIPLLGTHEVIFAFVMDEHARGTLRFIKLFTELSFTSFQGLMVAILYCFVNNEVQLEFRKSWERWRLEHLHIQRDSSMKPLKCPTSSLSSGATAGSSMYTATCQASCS
human GLP-1 receptor (GLP-1R), sequence (P43220 24-463): as above

Compound | EC50 [1] [nM] | EC50 [2] [nM] | Ki (human Gcg receptor) [nM] | Ki (human GLP-1R) [nM] | Ki (human GIP receptor) [nM]
CC[C@H](C)[C@H](NC(=O)[C@H](CC(C)C)NC(=O)[C@H](Cc1ccc(O)cc1)NC(=O)[C@H](CCC(=O)O)NC(=O)[C@H](CC(C)C)NC(=O)[C@H](Cc1ccccc1)NC(=O)[C@H](C)NC(=O)C(C)(C)NC(=O)[C@H](CCC(N)=O)NC(=O)[C@H](C)NC(=O)[C@H](CCCCNC(=O)COCCOCCNC(=O)COCCOCCNC(=O)CC[C@H](NC(=O)CCCCCCCCCCCCCCCCC(=O)O)C(=O)O)NC(=O)[C@H](CCCCN)NC(=O)[C@H](CC(=O)O)NC(=O)[C@H](CC(C)C)NC(=O)[C@H](CC(C)C)NC(=O)[C@@H](NC(=O)[C@H](CO)NC(=O)[C@H](Cc1ccc(O)cc1)NC(=O)[C@H](CC(=O)O)NC(=O)[C@H](CO)NC(=O)[C@@H](NC(=O)[C@H](Cc1ccccc1)NC(=O)[C@@H](NC(=O)CNC(=O)[C@H](CCC(=O)O)NC(=O)C(C)(C)NC(=O)[C@@H](N)Cc1ccc(O)cc1)[C@@H](C)O)[C@@H](C)O)[C@@H](C)CC)C(=O)N[C@@H](CCC(=O)O)C(=O)NCC(=O)NCC(=O)N1CCC[C@H]1C(=O)N[C@@H](CO)C(=O)N[C@@H](CO)C(=O)NCC(N)=O [Example 299] (H-Y[Aib]EGTFTSDYSILLDKK([AEEA-AEEA-γGlu-C18 diacid])AQ[Aib]AFLEYLIEGGPSSG-NH2) | 2.54 | 0.932 | > 1040 | 54.3 | 0.734
CC[C@H](C)[C@H](NC(=O)[C@H](CC(C)C)NC(=O)[C@H](Cc1ccc(O)cc1)NC(=O)[C@H](CCC(=O)O)NC(=O)[C@@H](NC(=O)[C@H](Cc1ccccc1)NC(=O)[C@H](C)NC(=O)C(C)(C)NC(=O)[C@H](CCC(N)=O)NC(=O)[C@H](C)NC(=O)[C@H](CCCCNC(=O)COCCOCCNC(=O)COCCOCCNC(=O)CC[C@H](NC(=O)CCCCCCCCCCCCCCCCC(=O)O)C(=O)O)NC(=O)[C@H](CCC(=O)O)NC(=O)[C@H](CC(=O)O)NC(=O)[C@H](CC(C)C)NC(=O)[C@H](CC(C)C)NC(=O)[C@@H](NC(=O)[C@H](CO)NC(=O)[C@H](Cc1ccc(O)cc1)NC(=O)[C@H](CC(=O)O)NC(=O)[C@H](CO)NC(=O)[C@@H](NC(=O)[C@](C)(Cc1ccccc1)NC(=O)[C@@H](NC(=O)CNC(=O)[C@H](CCC(=O)O)NC(=O)C(C)(C)NC(=O)[C@@H](N)Cc1ccc(O)cc1)[C@@H](C)O)[C@@H](C)O)[C@@H](C)CC)[C@@H](C)CC)C(=O)N[C@@H](CCC(=O)O)C(=O)NCC(=O)NCC(=O)N1CCC[C@H]1C(=O)N[C@@H](CO)C(=O)N[C@@H](CO)C(=O)NCC(N)=O [Example 307] (H-Y[Aib]EGT[αMeF]TSDYSILLDEK([AEEA-AEEA-γGlu-C18 diacid])AQ[Aib]AFIEYLIEGGPSSG-NH2) | 0.0437 | 0.0285 | 117 | 5.1 | 0.0773
CC[C@H](C)[C@H](NC(=O)[C@H](CC(C)C)NC(=O)[C@H](Cc1ccc(O)cc1)NC(=O)[C@H](CCC(=O)O)NC(=O)[C@@H](NC(=O)[C@H](Cc1ccccc1)NC(=O)[C@H](CCC(=O)O)NC(=O)C(C)(C)NC(=O)[C@H](CCC(N)=O)NC(=O)[C@H](C)NC(=O)[C@H](CCCCNC(=O)COCCOCCNC(=O)COCCOCCNC(=O)CC[C@H](NC(=O)CCCCCCCCCCCCCCCCC(=O)O)C(=O)O)NC(=O)[C@H](CCCCN)NC(=O)[C@H](CC(=O)O)NC(=O)[C@H](CC(C)C)NC(=O)[C@H](CC(C)C)NC(=O)[C@@H](NC(=O)[C@H](CO)NC(=O)[C@H](Cc1ccc(O)cc1)NC(=O)[C@H](CC(=O)O)NC(=O)[C@H](CO)NC(=O)[C@@H](NC(=O)[C@](C)(Cc1ccccc1)NC(=O)[C@@H](NC(=O)CNC(=O)[C@H](CCC(=O)O)NC(=O)C(C)(C)NC(=O)[C@@H](N)Cc1ccc(O)cc1)[C@@H](C)O)[C@@H](C)O)[C@@H](C)CC)[C@@H](C)CC)C(=O)N[C@@H](CCC(=O)O)C(=O)NCC(=O)NCC(=O)N1CCC[C@H]1C(=O)N[C@@H](CO)C(=O)N[C@@H](CO)C(=O)NCC(N)=O [Example 308] (H-Y[Aib]EGT[αMeF]TSDYSILLDKK([AEEA-AEEA-γGlu-C18 diacid])AQ[Aib]EFIEYLIEGGPSSG-NH2) | 0.0392 | 0.0262 | 94.2 | 1.01 | 0.0288
CC[C@H](C)[C@H](NC(=O)[C@H](CC(C)C)NC(=O)[C@H](Cc1ccc(O)cc1)NC(=O)[C@H](CCC(=O)O)NC(=O)[C@@H](NC(=O)[C@H](Cc1ccccc1)NC(=O)[C@H](C)NC(=O)C(C)(C)NC(=O)[C@H](CCC(N)=O)NC(=O)[C@H](C)NC(=O)[C@H](CCCCNC(=O)COCCOCCNC(=O)COCCOCCNC(=O)CC[C@H](NC(=O)CCCCCCCCCCCCCCCCC(=O)O)C(=O)O)NC(=O)[C@H](CCCCN)NC(=O)[C@H](CC(=O)O)NC(=O)[C@H](CC(C)C)NC(=O)[C@H](CC(C)C)NC(=O)[C@@H](NC(=O)[C@H](CO)NC(=O)[C@H](Cc1ccc(O)cc1)NC(=O)[C@H](CC(=O)O)NC(=O)[C@H](CO)NC(=O)[C@@H](NC(=O)[C@](C)(Cc1ccccc1)NC(=O)[C@@H](NC(=O)CNC(=O)[C@H](CCC(=O)O)NC(=O)C(C)(C)NC(=O)[C@@H](N)Cc1ccc(O)cc1)[C@@H](C)O)[C@@H](C)O)[C@@H](C)CC)[C@@H](C)CC)C(=O)N[C@@H](C)C(=O)NCC(=O)NCC(=O)N1CCC[C@H]1C(=O)N[C@@H](CO)C(=O)N[C@@H](CO)C(=O)NCC(N)=O [Example 309] (H-Y[Aib]EGT[αMeF]TSDYSILLDKK([AEEA-AEEA-γGlu-C18 diacid])AQ[Aib]AFIEYLIAGGPSSG-NH2) | 0.033 | 0.0389 | 64.1 | 1.04 | 0.0264
CC[C@H](C)[C@H](NC(=O)[C@H](CC(C)C)NC(=O)[C@H](Cc1ccc(O)cc1)NC(=O)[C@H](CCC(=O)O)NC(=O)[C@@H](NC(=O)[C@H](Cc1ccccc1)NC(=O)[C@H](CCC(=O)O)NC(=O)C(C)(C)NC(=O)[C@H](CCC(N)=O)NC(=O)[C@H](C)NC(=O)[C@H](CCCCNC(=O)COCCOCCNC(=O)COCCOCCNC(=O)CC[C@H](NC(=O)CCCCCCCCCCCCCCCCC(=O)O)C(=O)O)NC(=O)[C@H](CCCCN)NC(=O)[C@H](CC(=O)O)NC(=O)[C@H](CC(C)C)NC(=O)[C@H](CC(C)C)NC(=O)[C@@H](NC(=O)[C@H](CO)NC(=O)[C@H](Cc1ccc(O)cc1)NC(=O)[C@H](CC(=O)O)NC(=O)[C@H](CO)NC(=O)[C@@H](NC(=O)[C@](C)(Cc1ccccc1)NC(=O)[C@@H](NC(=O)CNC(=O)[C@H](CCC(=O)O)NC(=O)C(C)(C)NC(=O)[C@@H](N)Cc1ccc(O)cc1)[C@@H](C)O)[C@@H](C)O)[C@@H](C)CC)[C@@H](C)CC)C(=O)N[C@@H](C)C(=O)NCC(=O)NCC(=O)N1CCC[C@H]1C(=O)N[C@@H](CO)C(=O)N[C@@H](CO)C(=O)NCC(N)=O [Example 310] (H-Y[Aib]EGT[αMeF]TSDYSILLDKK([AEEA-AEEA-γGlu-C18 diacid])AQ[Aib]EFIEYLIAGGPSSG-NH2; N-terminus assumed) | 0.0283 | 0.0176 | 174 | 1.7 | 0.0315
CC[C@H](C)[C@H](NC(=O)[C@H](CC(C)C)NC(=O)[C@H](Cc1ccc(O)cc1)NC(=O)[C@H](CCC(=O)O)NC(=O)[C@@H](NC(=O)[C@H](Cc1ccccc1)NC(=O)[C@H](C)NC(=O)C(C)(C)NC(=O)[C@H](CCC(N)=O)NC(=O)[C@H](C)NC(=O)[C@H](CCCCNC(=O)COCCOCCNC(=O)COCCOCCNC(=O)CC[C@H](NC(=O)CCCCCCCCCCCCCCCCC(=O)O)C(=O)O)NC(=O)[C@H](CCC(=O)O)NC(=O)[C@H](CC(=O)O)NC(=O)[C@H](CC(C)C)NC(=O)[C@H](CC(C)C)NC(=O)[C@@H](NC(=O)[C@H](CO)NC(=O)[C@H](Cc1ccc(O)cc1)NC(=O)[C@H](CC(=O)O)NC(=O)[C@H](CO)NC(=O)[C@@H](NC(=O)[C@](C)(Cc1ccccc1F)NC(=O)[C@@H](NC(=O)CNC(=O)[C@H](CCC(=O)O)NC(=O)C(C)(C)NC(=O)[C@@H](N)Cc1ccc(O)cc1)[C@@H](C)O)[C@@H](C)O)[C@@H](C)CC)[C@@H](C)CC)C(=O)N[C@@H](CCC(=O)O)C(=O)NCC(=O)NCC(=O)N1CCC[C@H]1C(=O)N[C@@H](CO)C(=O)N[C@@H](CO)C(=O)NCC(N)=O [Example 311] (H-Y[Aib]EGT[αMePhe(2-F)]TSDYSILLDEK([AEEA-AEEA-γGlu-C18 diacid])AQ[Aib]AFIEYLIEGGPSSG-NH2) | 0.0393 | 0.0334 | 115 | 11.5 | 0.0497
